Assay results published in patent US20240158446A1, “CYCLIC COMPOUND HAVING SELECTIVE INHIBITORY ACTION ON KRAS OVER HRAS AND NRAS” (CHUGAI SEIYAKU KABUSHIKI KAISHA, priority 2021, published 2024).
Where two headings read alike, the source gives them in different places.

Tests used:
[1] = molecular target: GDP-bound NRAS wild-type protein (Homo sapiens, UniProt P01111); test: Binding to NRAS by surface plasmon resonance (SPR), Single Cycle Kinetics; conditions: SPR; for NRAS/KRAS (ratio of KD value for NRAS to KD value for KRAS): GDP-bound NRAS wild-type protein vs GDP-bound KRAS wild-type protein
Chain of GDP-bound NRAS wild-type protein (P01111 whole entry): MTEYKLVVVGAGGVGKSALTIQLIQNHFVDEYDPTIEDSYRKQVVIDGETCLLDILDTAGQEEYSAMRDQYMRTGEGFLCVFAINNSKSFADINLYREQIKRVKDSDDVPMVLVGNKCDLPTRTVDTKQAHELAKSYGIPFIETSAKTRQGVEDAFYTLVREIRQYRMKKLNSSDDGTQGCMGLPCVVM

[2] = system: human lung cancer strain NCI-H441;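 note: cell proliferation inhibition after four days measured by CellTiter-Glo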
[3] = molecular target: GDP-bound HRAS wild-type protein (Homo sapiens, UniProt P01112); test: Binding to HRAS by surface plasmon resonance (SPR), Single Cycle Kinetics; conditions: SPR; for HRAS/KRAS (ratio of KD value for HRAS to KD value for KRAS): GDP-bound HRAS wild-type protein vs GDP-bound KRAS wild-type protein
Chain of GDP-bound HRAS wild-type protein (P01112 whole entry): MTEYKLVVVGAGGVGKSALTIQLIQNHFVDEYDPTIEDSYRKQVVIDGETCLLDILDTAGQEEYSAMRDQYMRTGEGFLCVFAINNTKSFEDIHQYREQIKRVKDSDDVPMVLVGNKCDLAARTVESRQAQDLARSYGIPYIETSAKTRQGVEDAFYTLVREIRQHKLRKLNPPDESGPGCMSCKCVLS

[4] = read-out: NCI-H441 cell proliferation inhibitory activity, 50% proliferation inhibitory concentration (IC50 value), NCI-H441, four days, CellTiter-Glo

| SMILES | NRAS/KRAS (ratio of KD value for NRAS to KD value for KRAS) [1] | IC50 [2] [nM] | HRAS/KRAS (ratio of KD value for HRAS to KD value for KRAS) [3] | IC50 ([2]; read-out: NCI-H441 IC50, NCI-H441 cells, four days, CellTiter-Glo) [nM] | ratio of the KD value with respect to GDP-bound NRAS wild-type protein to the KD value with respect to KRAS [1] | IC50 [2, 4] [nM] | ratio of the KD value with respect to GDP-bound HRAS wild-type protein to the KD value with respect to KRAS [3] |
| --- | --- | --- | --- | --- | --- | --- | --- |
| CCC[C@H]1C(=O)N[C@@H](C2CCCCC2)C(=O)N(C)CC(=O)N(C)[C@H]2C/C=C\CCN(C2=O)[C@@H](Cc2ccc(C)cc2)C(=O)N(C)CC(=O)N[C@@H](CCc2ccc(C(F)(F)F)c(Cl)c2)C(=O)N2C[C@H](OCC)C[C@H]2C(=O)NC2(CC(C)(C)C2)C(=O)N(C)[C@@H](CC(C)(C)C)C(=O)N(C)[C@H](C(=O)N(C)C)CC(=O)N1C [PP3018] | A (a compound having 10 or more and less than 20 is denoted as A) | 19.1 | B (a compound having 3 or more and less than 10 is denoted as B) |  |  |  |  |
| CCC(CC)[C@H]1C(=O)N(C)[C@H](C(=O)N2CCCCC2)CC(=O)N(C)[C@H]2CCC/C=C/c3ccc(cc3)C[C@@H](C(=O)N(C)CC(=O)N[C@@H](CCc3ccc(Cl)c(Cl)c3)C(=O)N3CCC[C@H]3C(=O)NC3(CC(C)(C)C3)C(=O)N1C)N1CC/C=C\C[C@@H](C1=O)N(C)C(=O)CN(C)C(=O)[C@H]([C@@H](C)CC)NC2=O [PP3055] | AA (a compound having 20 or more is denoted as AA) |  | A (a compound having 10 or more and less than 20 is denoted as A) | 69.2 |  |  |  |
| CCCO[C@@H]1C[C@H]2C(=O)NC3(CC(C)(C)C3)C(=O)N(C)[C@@H](C3CCCC3)C(=O)N(C)[C@H](C(=O)N(C)CC)CC(=O)N(C)[C@H]3CCCc4ccc(cc4)C[C@@H](C(=O)N(C)CC(=O)N[C@@H](CCc4ccc(C(F)(F)F)c(OC)c4)C(=O)N2C1)N1CC/C=C\C[C@@H](C1=O)N(C)C(=O)CN(C)C(=O)[C@H]([C@@H](C)CC)NC3=O [PP3083] | A (a compound having 10 or more and less than 20 is denoted as A) |  | A (a compound having 10 or more and less than 20 is denoted as A) |  | A (a compound having 10 or more and less than 20 is denoted as A) | 2.5 | A (a compound having 10 or more and less than 20 is denoted as A) |
| CC[C@H](C)[C@@H]1NC(=O)[C@@H]2CCCc3ccc(cc3)C[C@@H](C(=O)N(C)CC(=O)N[C@@H](CCc3ccc(C(F)(F)F)c(OC)c3)C(=O)N3C[C@H](OC(C)C)C[C@H]3C(=O)NC3(CC(C)(C)C3)C(=O)N(C)[C@@H](C3CCCC3)C(=O)N(C)[C@H](C(=O)N(C)CC)CC(=O)N2C)N2CC/C=C\C[C@@H](C2=O)N(C)C(=O)CN(C)C1=O [PP3084] | A (a compound having 10 or more and less than 20 is denoted as A) |  | B (a compound having 3 or more and less than 10 is denoted as B) |  | A (a compound having 10 or more and less than 20 is denoted as A) | 3.7 | B (a compound having 3 or more and less than 10 is denoted as B) |
| CCO[C@@H]1C[C@H]2C(=O)N(C)C3(CC(C)(C)C3)C(=O)N(C)[C@@H](C3CCCC3)C(=O)N(C)[C@H](C(=O)N(C)C)CC(=O)N(C)[C@H]3CCCCCc4ccc(cc4)C[C@@H](C(=O)N(C)CC(=O)N[C@@H](CCc4ccc(C(F)(F)F)c(OC)c4)C(=O)N2C1)N1CC/C=C\C[C@@H](C1=O)N(C)C(=O)CN(C)C(=O)[C@H]([C@@H](C)CC)NC3=O [PP3091] | A (a compound having 10 or more and less than 20 is denoted as A) |  | B (a compound having 3 or more and less than 10 is denoted as B) |  | A (a compound having 10 or more and less than 20 is denoted as A) | 1.2 | B (a compound having 3 or more and less than 10 is denoted as B) |
